Laboratory results from PubChem BioAssay (NCI).
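Interpolation was linear, between the two tested concentrations surrounding the appropriate level; five concentrations were tested over 48 hours in 96-well plates. TGI denotes the concentration required for complete inhibition of growth.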

Key:
Test in all cases: NCI-60 cell line screen, 48 h
SNB-75 CNS = test system: SNB-75 CNS
RXF-631 renal = test system: RXF-631 renal
OVCAR-8 ovarian = test system: OVCAR-8 ovarian
DMS 273 small cell lung = test system: DMS 273 small cell lung
HOP-92 NSCLC = test system: HOP-92 NSCLC
HCT-116 colon = test system: HCT-116 colon
SN12C renal = test system: SN12C renal
A498 renal = test system: A498 renal
A549 NSCLC = test system: A549 NSCLC
LOX IMVI melanoma = test system: LOX IMVI melanoma
SNB-78 CNS = test system: SNB-78 CNS
SNB-19 CNS = test system: SNB-19 CNS
MALME-3M melanoma = test system: MALME-3M melanoma
HCC-2998 colon = test system: HCC-2998 colon
OVCAR-4 ovarian = test system: OVCAR-4 ovarian
K-562 leukemia = test system: K-562 leukemia
DLD-1 colon = test system: DLD-1 colon
NCI-H226 lung = test system: NCI-H226 lung
ACHN renal = test system: ACHN renal
EKVX NSCLC = test system: EKVX NSCLC
IGROV1 ovarian = test system: IGROV1 ovarian
HCT-15 colon = test system: HCT-15 colon
HL-60(TB) leukemia = test system: HL-60(TB) leukemia
CAKI-1 renal = test system: CAKI-1 renal
SK-MEL-2 melanoma = test system: SK-MEL-2 melanoma
M14 melanoma = test system: M14 melanoma
SF-268 CNS = test system: SF-268 CNS
RPMI-8226 leukemia = test system: RPMI-8226 leukemia
LXFL 529 NSCLC = test system: LXFL 529 NSCLC
NCI-H23 lung = test system: NCI-H23 lung
KM20L2 colon = test system: KM20L2 colon
CCRF-CEM leukemia = test system: CCRF-CEM leukemia
UACC-62 melanoma = test system: UACC-62 melanoma
TK-10 renal = test system: TK-10 renal
MOLT-4 leukemia = test system: MOLT-4 leukemia
SK-MEL-28 melanoma = test system: SK-MEL-28 melanoma
786-0 renal = test system: 786-0 renal
UO-31 renal = test system: UO-31 renal
SR leukemia = test system: SR leukemia
HT29 colon = test system: HT29 colon
SK-MEL-5 melanoma = test system: SK-MEL-5 melanoma
DMS 114 small cell lung = test system: DMS 114 small cell lung
UACC-257 melanoma = test system: UACC-257 melanoma
RXF 393 renal = test system: RXF 393 renal
M19-MEL melanoma = test system: M19-MEL melanoma
U251 CNS = test system: U251 CNS
OVCAR-3 ovarian = test system: OVCAR-3 ovarian
SF-295 CNS = test system: SF-295 CNS
SF-539 CNS = test system: SF-539 CNS
OVCAR-5 ovarian = test system: OVCAR-5 ovarian
NCI-H460 lung = test system: NCI-H460 lung
SW-620 colon = test system: SW-620 colon
MDA-MB-435 = test system: MDA-MB-435
KM12 colon = test system: KM12 colon
PC-3 prostate = test system: PC-3 prostate
SK-OV-3 ovarian = test system: SK-OV-3 ovarian
T-47D breast = test system: T-47D breast
HOP-62 NSCLC = test system: HOP-62 NSCLC
MDA-N = test system: MDA-N
MCF7 breast = test system: MCF7 breast
BT-549 breast = test system: BT-549 breast
DU-145 prostate = test system: DU-145 prostate
MDA-MB-231 breast = test system: MDA-MB-231 breast
NCI/ADR-RES ovarian = test system: NCI/ADR-RES ovarian
NCI-H522 lung = test system: NCI-H522 lung
COLO 205 colon = test system: COLO 205 colon
HS 578T breast = test system: HS 578T breast

For `O=C(CC1Sc2ccccc2NC1=O)Nc1cc(Cl)ccc1Cl` (stereo unspecified), the TGI (SNB-75 CNS) was greater than 100 µM, the TGI (RXF-631 renal) was greater than 100 µM and the TGI (OVCAR-8 ovarian) was greater than 100 µM. It also gave a TGI (DMS 273 small cell lung) greater than 100 µM, a TGI (HOP-92 NSCLC) greater than 100 µM and a TGI (HCT-116 colon) greater than 100 µM. For the same molecule, the TGI (SN12C renal) was greater than 100 µM, the TGI (A498 renal) was greater than 100 µM and the TGI (A549 NSCLC) was greater than 100 µM. For the same molecule, the TGI (LOX IMVI melanoma) was greater than 100 µM, the TGI (SNB-78 CNS) was greater than 100 µM and the TGI (SNB-19 CNS) was greater than 100 µM. It also gave a TGI (MALME-3M melanoma) greater than 100 µM, a TGI (HCC-2998 colon) greater than 100 µM and a TGI (OVCAR-4 ovarian) greater than 100 µM. It also gave a TGI (K-562 leukemia) greater than 100 µM, a TGI (DLD-1 colon) greater than 100 µM and a TGI (NCI-H226 lung) greater than 100 µM. The TGI (ACHN renal) was greater than 100 µM, the TGI (EKVX NSCLC) was greater than 100 µM and the TGI (IGROV1 ovarian) was greater than 100 µM. It also gave a TGI (HCT-15 colon) greater than 100 µM, a TGI (HL-60(TB) leukemia) greater than 100 µM and a TGI (CAKI-1 renal) greater than 100 µM. For the same molecule, the TGI (SK-MEL-2 melanoma) was greater than 100 µM, the TGI (M14 melanoma) was greater than 100 µM and the TGI (SF-268 CNS) was greater than 100 µM. The TGI (RPMI-8226 leukemia) was greater than 100 µM, the TGI (LXFL 529 NSCLC) was greater than 100 µM and the TGI (NCI-H23 lung) was greater than 100 µM. The TGI (KM20L2 colon) was greater than 100 µM, the TGI (CCRF-CEM leukemia) was greater than 100 µM and the TGI (UACC-62 melanoma) was greater than 100 µM. It also gave a TGI (TK-10 renal) greater than 100 µM, a TGI (MOLT-4 leukemia) greater than 100 µM and a TGI (SK-MEL-28 melanoma) greater than 100 µM. For the same molecule, the TGI (786-0 renal) was greater than 100 µM, the TGI (UO-31 renal) was greater than 100 µM and the TGI (SR leukemia) was 82.1 µM. For the same molecule, the TGI (HT29 colon) was greater than 100 µM, the TGI (SK-MEL-5 melanoma) was greater than 100 µM and the TGI (DMS 114 small cell lung) was greater than 100 µM. The TGI (UACC-257 melanoma) was greater than 100 µM, the TGI (RXF 393 renal) was greater than 100 µM and the TGI (M19-MEL melanoma) was greater than 100 µM. It also gave a TGI (U251 CNS) greater than 100 µM, a TGI (OVCAR-3 ovarian) greater than 100 µM and a TGI (SF-295 CNS) greater than 100 µM. The TGI (SF-539 CNS) was greater than 100 µM, the TGI (OVCAR-5 ovarian) was greater than 100 µM and the TGI (NCI-H460 lung) was greater than 100 µM. For the same molecule, the TGI (SW-620 colon) was greater than 100 µM.

`O=C(O)CSSCC(=O)O` gave a TGI (SNB-75 CNS) greater than 100 µM, a TGI (OVCAR-8 ovarian) greater than 100 µM and a TGI (HOP-92 NSCLC) greater than 100 µM. It also gave a TGI (MDA-MB-435) greater than 100 µM, a TGI (KM12 colon) greater than 100 µM and a TGI (HCT-116 colon) greater than 100 µM. For the same molecule, the TGI (SN12C renal) was greater than 100 µM, the TGI (A498 renal) was greater than 100 µM and the TGI (A549 NSCLC) was greater than 100 µM. The TGI (LOX IMVI melanoma) was greater than 100 µM, the TGI (SNB-19 CNS) was greater than 100 µM and the TGI (MALME-3M melanoma) was greater than 100 µM. It also gave a TGI (PC-3 prostate) greater than 100 µM, a TGI (HCC-2998 colon) greater than 100 µM and a TGI (SK-OV-3 ovarian) greater than 100 µM. It also gave a TGI (OVCAR-4 ovarian) greater than 100 µM, a TGI (K-562 leukemia) greater than 100 µM and a TGI (NCI-H226 lung) greater than 100 µM. It also gave a TGI (T-47D breast) greater than 100 µM, a TGI (ACHN renal) greater than 100 µM and a TGI (EKVX NSCLC) greater than 100 µM. It also gave a TGI (IGROV1 ovarian) greater than 100 µM, a TGI (HCT-15 colon) greater than 100 µM and a TGI (HOP-62 NSCLC) greater than 100 µM. It also gave a TGI (HL-60(TB) leukemia) greater than 100 µM, a TGI (CAKI-1 renal) greater than 100 µM and a TGI (SK-MEL-2 melanoma) greater than 100 µM. It also gave a TGI (M14 melanoma) greater than 100 µM, a TGI (MDA-N) greater than 100 µM and a TGI (MCF7 breast) greater than 100 µM. It also gave a TGI (SF-268 CNS) greater than 100 µM, a TGI (RPMI-8226 leukemia) greater than 100 µM and a TGI (BT-549 breast) greater than 100 µM. For the same molecule, the TGI (NCI-H23 lung) was greater than 100 µM, the TGI (DU-145 prostate) was greater than 100 µM and the TGI (CCRF-CEM leukemia) was greater than 100 µM. It also gave a TGI (UACC-62 melanoma) greater than 100 µM, a TGI (TK-10 renal) greater than 100 µM and a TGI (MOLT-4 leukemia) greater than 100 µM. For the same molecule, the TGI (SK-MEL-28 melanoma) was greater than 100 µM, the TGI (MDA-MB-231 breast) was greater than 100 µM and the TGI (786-0 renal) was greater than 100 µM. For the same molecule, the TGI (UO-31 renal) was greater than 100 µM, the TGI (SR leukemia) was greater than 100 µM and the TGI (HT29 colon) was greater than 100 µM. For the same molecule, the TGI (SK-MEL-5 melanoma) was greater than 100 µM, the TGI (UACC-257 melanoma) was greater than 100 µM and the TGI (RXF 393 renal) was greater than 100 µM. It also gave a TGI (U251 CNS) greater than 100 µM, a TGI (OVCAR-3 ovarian) greater than 100 µM and a TGI (SF-295 CNS) greater than 100 µM. It also gave a TGI (SF-539 CNS) greater than 100 µM, a TGI (OVCAR-5 ovarian) greater than 100 µM and a TGI (NCI/ADR-RES ovarian) greater than 100 µM. It also gave a TGI (NCI-H460 lung) greater than 100 µM, a TGI (SW-620 colon) greater than 100 µM and a TGI (NCI-H522 lung) greater than 100 µM. It also gave a TGI (COLO 205 colon) greater than 100 µM and a TGI (HS 578T breast) greater than 100 µM.
